From US7528138B2, “Pyrazolo[1,5-a]pyrimidines useful as inhibitors of protein kinases” (Vertex Pharmaceuticals Incorporated, priority 2004, dated 2009)

Assays:
Type in all cases: biochemical
c-Met = c-Met (Homo sapiens, UniProt P08581); assay: c-Met Inhibition Assay, coupled enzyme system; conditions: enzyme inhibition data (Ki), Table 11
Outline: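 Pyruvate kinase/lactate dehydrogenase-coupled NADH assay in HEPES pH 7.5 with 80 nM c-Met, 200 μM ATP and 10 μM polyGluTyr at 30° C. Compound (0.006–12.5 μM final, 12-point) preincubated 10 min before ATP start; rates over 10 min gave Ki.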

Rlk = target: T1, Rlk (Homo sapiens, UniProt P42681); assay: RLK Inhibition Assay, coupled enzyme assay; conditions: enzyme inhibition data (Ki), Table 11
T1 sequence (P42681 1-527): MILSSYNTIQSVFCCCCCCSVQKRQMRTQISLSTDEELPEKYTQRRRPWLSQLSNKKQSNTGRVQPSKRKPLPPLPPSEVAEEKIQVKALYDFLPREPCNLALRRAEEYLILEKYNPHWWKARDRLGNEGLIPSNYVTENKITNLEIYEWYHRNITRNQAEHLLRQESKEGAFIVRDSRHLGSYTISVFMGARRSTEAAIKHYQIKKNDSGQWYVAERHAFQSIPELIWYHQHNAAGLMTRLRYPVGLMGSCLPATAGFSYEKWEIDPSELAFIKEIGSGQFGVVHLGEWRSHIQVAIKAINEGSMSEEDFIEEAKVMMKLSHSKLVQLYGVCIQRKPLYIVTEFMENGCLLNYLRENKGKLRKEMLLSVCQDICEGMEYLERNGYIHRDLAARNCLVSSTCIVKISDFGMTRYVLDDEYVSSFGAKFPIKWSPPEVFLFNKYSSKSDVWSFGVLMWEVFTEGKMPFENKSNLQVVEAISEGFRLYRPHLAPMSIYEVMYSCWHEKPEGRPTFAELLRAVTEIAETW
Description: Compounds are screened for their ability to inhibit Rlk using a standard coupled enzyme assay (Fox et al., Protein Sci., (1998) 7, 2249). Assays are carried out in a mixture of 20 mM MOPS (pH 7.0), 10 mM MgCl2, 0.1% BSA and 1 mM DTT. Final substrate concentrations in the assay are 100 μM ATP (Sigma Chemicals) and 10 μM peptide (Poly Glu:Tyr 4:1). Assays are carried out at 30° C. and in the presence of 40 nM Rlk. Final concentrations of the components of the coupled enzyme system are 2.5 mM phosphoenolpyruvate, 300 μM NADH, 30 μg/ml pyruvate kinase and 10 μg/ml lactate dehydrogenase.
(§1) An assay stock buffer solution is prepared containing all of the reagents listed above, with the exception of ATP and the test compound of interest. 60 μl of the stock solution is placed in a 96 well plate followed by addition of 2 μl of DMSO stock containing serial dilutions of the test compound (typically starting from a final concentration of 7.5 μM). The plate is preincubated for 10 minutes at 30° C. and the reaction initiated by addition of 5 μl of ATP. Initial reaction rates are determined with a Molecular Devices SpectraMax Plus plate reader over a 10 minute time course. IC50 and Ki data are calculated from non-linear regression analysis using the Prism software package (GraphPad Prism version 3.0cx for Macintosh, GraphPad Software, San Diego Calif., USA).

Aurora-2 = target: T2, Aurora-2 (Homo sapiens, UniProt O14965); assay: Aurora-A (Aurora-2) Inhibition Assay, coupled enzyme assay; conditions: enzyme inhibition data (Ki), Table 11; read-out: AurA Ki
T2 sequence (O14965 1-403): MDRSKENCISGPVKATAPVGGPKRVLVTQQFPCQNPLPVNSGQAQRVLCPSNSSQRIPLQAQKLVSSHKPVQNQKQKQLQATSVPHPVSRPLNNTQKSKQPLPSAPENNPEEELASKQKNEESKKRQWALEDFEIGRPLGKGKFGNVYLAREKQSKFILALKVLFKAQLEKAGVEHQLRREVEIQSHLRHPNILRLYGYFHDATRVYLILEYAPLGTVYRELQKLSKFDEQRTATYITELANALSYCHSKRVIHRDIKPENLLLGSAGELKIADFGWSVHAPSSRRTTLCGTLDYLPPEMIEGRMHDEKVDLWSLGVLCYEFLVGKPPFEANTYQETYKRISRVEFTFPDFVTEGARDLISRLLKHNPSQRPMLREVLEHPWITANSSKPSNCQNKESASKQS
Description: Compounds are screened for their ability to inhibit Aurora-2 using a standard coupled enzyme assay (Fox et al., Protein Sci., (1998) 7, 2249). Assays are carried out in a mixture of 100 mM Hepes (pH7.5), 10 mM MgCl2, 1 mM DTT, 25 mM NaCl, 2.5 mM phosphoenolpyruvate, 300 μM NADH, 30 μg/ml pyruvate kinase and 10 μg/ml lactate dehydrogenase. Final substrate concentrations in the assay are 400 μM ATP (Sigma Chemicals) and 570 μM peptide (Kemptide, American Peptide, Sunnyvale, Calif.). Assays are carried out at 30° C. and in the presence of 40 nM Aurora-2.
as §1, with “of Aurora-2” for “of ATP”, “interest. 55” for “interest. 60”, “of 10” for “of 5”, “of Aurora-2.” for “of ATP.”

c-Met, sequence (P08581 25-1390): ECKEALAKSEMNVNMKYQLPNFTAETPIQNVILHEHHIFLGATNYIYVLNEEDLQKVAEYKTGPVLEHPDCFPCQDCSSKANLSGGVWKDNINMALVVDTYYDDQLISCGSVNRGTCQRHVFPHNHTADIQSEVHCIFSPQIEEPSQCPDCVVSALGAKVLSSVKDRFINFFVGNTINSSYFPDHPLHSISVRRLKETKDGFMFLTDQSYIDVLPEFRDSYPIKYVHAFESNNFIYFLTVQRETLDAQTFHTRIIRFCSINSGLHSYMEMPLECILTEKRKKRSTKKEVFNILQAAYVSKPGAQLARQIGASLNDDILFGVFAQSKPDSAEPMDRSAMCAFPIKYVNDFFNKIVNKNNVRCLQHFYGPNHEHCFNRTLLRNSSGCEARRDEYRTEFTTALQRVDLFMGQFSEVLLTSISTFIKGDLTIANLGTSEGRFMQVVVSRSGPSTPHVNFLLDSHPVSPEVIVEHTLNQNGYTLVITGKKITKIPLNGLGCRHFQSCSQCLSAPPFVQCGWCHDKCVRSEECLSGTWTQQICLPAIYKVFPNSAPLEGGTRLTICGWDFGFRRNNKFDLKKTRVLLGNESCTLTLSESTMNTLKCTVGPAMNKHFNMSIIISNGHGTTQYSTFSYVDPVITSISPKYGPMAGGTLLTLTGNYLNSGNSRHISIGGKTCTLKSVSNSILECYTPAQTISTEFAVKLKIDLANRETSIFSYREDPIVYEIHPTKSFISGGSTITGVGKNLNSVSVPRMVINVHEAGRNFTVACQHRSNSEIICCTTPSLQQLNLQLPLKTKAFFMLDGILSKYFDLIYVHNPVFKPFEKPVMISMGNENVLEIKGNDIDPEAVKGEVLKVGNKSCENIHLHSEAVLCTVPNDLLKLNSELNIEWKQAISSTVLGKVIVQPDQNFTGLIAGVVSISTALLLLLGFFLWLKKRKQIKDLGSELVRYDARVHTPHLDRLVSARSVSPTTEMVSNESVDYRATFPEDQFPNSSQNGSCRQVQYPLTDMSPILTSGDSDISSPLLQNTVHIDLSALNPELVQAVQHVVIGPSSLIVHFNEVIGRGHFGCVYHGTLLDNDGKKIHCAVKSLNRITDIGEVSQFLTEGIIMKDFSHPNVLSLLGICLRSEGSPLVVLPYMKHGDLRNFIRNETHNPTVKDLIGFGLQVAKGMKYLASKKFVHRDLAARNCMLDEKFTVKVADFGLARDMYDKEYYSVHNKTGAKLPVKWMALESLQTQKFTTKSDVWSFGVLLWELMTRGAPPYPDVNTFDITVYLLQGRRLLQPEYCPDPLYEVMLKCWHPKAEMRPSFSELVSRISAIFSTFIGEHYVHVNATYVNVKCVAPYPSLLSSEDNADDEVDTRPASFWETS

| SMILES | Ki (c-Met) | Ki (Rlk) | Ki (Aurora-2) |
| --- | --- | --- | --- |
| CN(C)Cc1cccc(-c2cnc3c(-c4ccccn4)c(N)nn3c2)c1 [Compound V-215] | < 500 nM | 500 to 5000 nM | 500 to 5000 nM |
| NC1NN2C=C(c3cccc(CN4CCCNCC4)c3)C=NC2=C1c1ccccn1 (centres unmarked) [Compound V-228] | < 500 nM | 500 to 5000 nM | 500 to 5000 nM |
| Nc1nn2cc(-c3ccc(CNC4CCNCC4)cc3)cnc2c1-c1ccccn1 [Compound V-232] | < 500 nM | 500 to 5000 nM | 500 to 5000 nM |
| NC1CCN(Cc2cccc(C3=CN4NC(N)C(c5ccccn5)=C4N=C3)c2)CC1 (centres unmarked) [Compound V-229] | < 500 nM | 500 to 5000 nM | 500 to 5000 nM |
| CN(C)Cc1ccc(-c2cnc3c(-c4ccccn4)c(N)nn3c2)cc1 [Compound V-214] | < 500 nM | 500 to 5000 nM | < 500 nM |
| Nc1nn2cc(-c3ccc(CN4CC[C@@H](N)C4)cc3)cnc2c1-c1ccccn1 [Compound V-231] | < 500 nM | 500 to 5000 nM | < 500 nM |
| Nc1nn2cc(-c3ccc(CN4CCC(N)CC4)cc3)cnc2c1-c1ccccn1 [Compound V-234] | < 500 nM | 500 to 5000 nM | < 500 nM |
| NCc1ccc(-c2cnc3c(-c4ccccn4)c(N)nn3c2)cc1 [Compound V-195] | < 500 nM | 500 to 5000 nM | < 500 nM |
| Nc1nn2cc(-c3cccc(N4CCNCC4)c3)cnc2c1-c1ccccn1 [Compound V-222] | < 500 nM | 500 to 5000 nM | < 500 nM |
| CNCCCN(C)C(=O)c1ccc(-c2cnc3c(-c4ccccn4)c(N)nn3c2)cc1 [Compound V-191] | < 500 nM | < 500 nM | < 500 nM |
| CNCc1ccc(-c2cnc3c(-c4ccccn4)c(N)nn3c2)cc1 [Compound V-236] | < 500 nM | 500 to 5000 nM | < 500 nM |
| NC1NN2C=C(c3cccc(CN4CC[C@H](N)C4)c3)C=NC2=C1c1ccccn1 (some centres unmarked) [Compound V-227] | < 500 nM | 500 to 5000 nM | 500 to 5000 nM |
| Nc1nn2cc(-c3ccc(CN4CC[C@H](N)C4)cc3)cnc2c1-c1ccccn1 [Compound V-233] | < 500 nM | 500 to 5000 nM | < 500 nM |
| CNCCCN(C)Cc1ccc(-c2cnc3c(-c4ccccn4)c(N)nn3c2)cc1 [Compound V-230] | < 500 nM | < 500 nM | < 500 nM |
| Nc1nn2cc(-c3cccc(CN4CCNCC4)c3)cnc2c1-c1ccccn1 [Compound V-223] | < 500 nM | 500 to 5000 nM | 500 to 5000 nM |
| CN(C)CCN(C)C(=O)c1ccc(-c2cnc3c(-c4ccccn4)c(N)nn3c2)cc1 [Compound V-188] | < 500 nM | < 500 nM | < 500 nM |
| NCc1cccc(-c2cnc3c(-c4ccccn4)c(N)nn3c2)c1 [Compound V-202] | < 500 nM | 500 to 5000 nM | 500 to 5000 nM |
| Nc1nn2cc(-c3ccc(CN4CCNCC4)cc3)cnc2c1-c1ccccn1 [Compound V-217] | < 500 nM | < 500 nM | < 500 nM |
| CN(C)CCNc1ccc(-c2cnc3c(-c4ccccn4)c(N)nn3c2)cn1 [Compound V-159] | < 500 nM |  | 500 to 5000 nM |
| CCN(CC)CCN(C)C(=O)c1cccc(-c2cnc3c(-c4ccccn4)c(N)nn3c2)n1 [Compound V-124] | < 500 nM |  | 500 to 5000 nM |
| Nc1nn2cc(C(=O)NC3CCCNC3)cnc2c1-c1ccccn1 (centres unmarked) [Compound V-206] | 500 to 5000 nM |  | 500 to 5000 nM |
| CCN(CC)CCN(C)c1ccc(-c2cnc3c(-c4ccccn4)c(N)nn3c2)cn1 [Compound V-173] | < 500 nM |  | 500 to 5000 nM |
